Experimental data from patent US7084165B2, “Monoamine reuptake inhibitors for treatment of CNS disorders” (Pfizer Inc, priority 1999, dated 2006).
Where a name gives a salt, the structure may show the parent alone.

| Structure (SMILES) | melting point [°C] |
| --- | --- |
| CNC(C)c1cc(F)ccc1Oc1ccc(Cl)c(Cl)c1 (stereo not shown) | 127 |
| CC(=O)Nc1ccc(Oc2ccc(Cl)c(Cl)c2)c(CN(C)C)c1.Cl | 199 to 202 |
| Cl.Fc1ccc(Oc2ccc(Cl)c(Cl)c2)c(C2CCCN2)c1 (stereo not shown) | 171 to 173 |
| CN(C)Cc1cc(C(F)(F)F)ccc1Oc1ccc(Cl)c(Cl)c1.O=C(O)/C=C\C(=O)O | 127 to 128 |
| CNCc1cc(F)ccc1Oc1ccc(Cl)cc1 (as salt: HCl) | 208 to 209 |
| CC(c1ccccc1Oc1ccc(Cl)c(Cl)c1)N(C)C (stereo not shown) (as salt: HCl) | 130 to 133 |
| CNC(C)c1ccccc1Oc1ccc(Cl)cc1 (stereo not shown) (as salt: HCl) | 147 to 149 |
| CNCc1cc(OC)c(OC)cc1Oc1ccc(Cl)c(Cl)c1 (as salt: HCl) | 143 to 145 |
| Cc1ccc(Oc2ccc(Cl)c(Cl)c2)c(CN(C)C)c1 (as salt: HCl) | 196 to 198 |

Results, then the compound that gave them:

| melting point [°C] | Structure (SMILES) |
| --- | --- |
| 164 to 166 | CNCc1ccc(C(F)(F)F)cc1Oc1ccc(Cl)c(Cl)c1 |
| 132 to 133 | CNCc1ccc(Cl)cc1Oc1ccc(Cl)c(Cl)c1 |
| 206 to 210 | CNCc1cc(Br)ccc1Oc1ccc(Cl)c(Cl)c1 (as salt: HCl) |
| 185 to 189 | CNCc1ccc(Br)cc1Oc1ccc(Cl)c(Cl)c1 (as salt: HCl) |
| 140 to 141 | CNCc1cc(OC)ccc1Oc1ccc(Cl)c(Cl)c1 (as salt: HCl) (hydrate or solvate) |
| 174 to 175 | CN(C)Cc1cc(F)ccc1Oc1ccc(Cl)c(Cl)c1 (as salt: HCl) [Example 13, [2-(3,4-Dichlorophenoxy)-5-fluorobenzyl]-dimethylamine] |
| 190 to 194 | NCc1cc(F)ccc1Oc1ccc(Cl)c(Cl)c1 (as salt: hydrochloride) [Example 57, 2-(3,4-DICHLOROPHENOXY)-5-FLUORO-BENZYLAMINE] |
